Results taken from patent publication US8471005B2 (Cephalon, Inc., priority 2008, dated 2013).
Like-named read-outs stand apart in the source and are kept apart here.

Key:
[1] = biological target: T1, ALK (Homo sapiens, UniProt Q9UM73); assay: ALK Kinase Assay (ELISA/TRF, PLC-γ substrate); format: biochemical; details: read-out: ALK Potency
T1 construct: host or cells: baculovirus expression system
In short: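 First, plates are coated with substrate (phospholipase C-γ, 10 μg/mL, TBS). Next, 30 ng/ml ALK initiates phosphorylation for 15 min at 37° C. Then Eu-N1 PT66 antibody is added for detection, and a nonlinear dose-response fit of percent inhibition yields IC50.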

[2] = biological target: T2, JAK2 (Homo sapiens, UniProt O60674); assay: Recombinant Human JAK2 Kinase Assay (TRF); format: biochemical; details: read-out: JAK2 Potency
T2 construct: host or cells: baculovirus expression system
In short: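 Kinase activity of baculovirus-expressed JAK2 is followed on a surface-immobilised biotinylated peptide, with the reaction run for 20 min at room temperature in buffer containing 0.2 μM ATP and manganese. Phosphorylation is read with Eu-N1 PY100 antibody.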

[3] = ALK kinase inhibition, 1 μM ATP
[4] = JAK2 kinase inhibition, 0.2 μM ATP

T2 sequence (O60674 whole entry): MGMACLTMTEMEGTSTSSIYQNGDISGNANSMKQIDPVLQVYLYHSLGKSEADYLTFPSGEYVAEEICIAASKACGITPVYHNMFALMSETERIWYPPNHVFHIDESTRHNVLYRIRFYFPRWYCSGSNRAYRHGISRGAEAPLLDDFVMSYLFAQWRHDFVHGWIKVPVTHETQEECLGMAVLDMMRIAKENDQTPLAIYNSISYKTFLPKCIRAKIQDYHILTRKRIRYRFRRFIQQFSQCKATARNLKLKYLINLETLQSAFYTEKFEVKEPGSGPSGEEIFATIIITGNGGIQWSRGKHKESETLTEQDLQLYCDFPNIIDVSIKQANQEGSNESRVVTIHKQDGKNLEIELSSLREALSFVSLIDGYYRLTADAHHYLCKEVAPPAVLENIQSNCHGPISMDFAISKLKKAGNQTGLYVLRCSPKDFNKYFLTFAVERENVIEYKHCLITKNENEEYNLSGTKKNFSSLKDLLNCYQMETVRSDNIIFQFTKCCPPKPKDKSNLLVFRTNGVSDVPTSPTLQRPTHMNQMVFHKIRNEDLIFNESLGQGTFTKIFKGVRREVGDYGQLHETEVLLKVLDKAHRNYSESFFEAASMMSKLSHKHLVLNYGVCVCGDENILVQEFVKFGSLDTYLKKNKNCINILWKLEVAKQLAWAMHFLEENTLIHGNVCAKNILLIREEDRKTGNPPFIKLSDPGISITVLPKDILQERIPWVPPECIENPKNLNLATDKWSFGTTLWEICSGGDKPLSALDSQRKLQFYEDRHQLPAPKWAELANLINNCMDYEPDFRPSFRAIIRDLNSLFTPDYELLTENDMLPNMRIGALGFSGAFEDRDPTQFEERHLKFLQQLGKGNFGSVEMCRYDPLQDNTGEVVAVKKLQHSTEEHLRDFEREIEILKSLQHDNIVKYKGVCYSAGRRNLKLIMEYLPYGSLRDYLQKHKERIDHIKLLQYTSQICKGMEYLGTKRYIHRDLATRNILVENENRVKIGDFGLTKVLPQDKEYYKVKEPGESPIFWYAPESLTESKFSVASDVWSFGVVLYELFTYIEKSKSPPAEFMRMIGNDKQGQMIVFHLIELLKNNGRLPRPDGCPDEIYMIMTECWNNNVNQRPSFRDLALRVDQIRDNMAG
T1 sequence (Q9UM73 19-1620): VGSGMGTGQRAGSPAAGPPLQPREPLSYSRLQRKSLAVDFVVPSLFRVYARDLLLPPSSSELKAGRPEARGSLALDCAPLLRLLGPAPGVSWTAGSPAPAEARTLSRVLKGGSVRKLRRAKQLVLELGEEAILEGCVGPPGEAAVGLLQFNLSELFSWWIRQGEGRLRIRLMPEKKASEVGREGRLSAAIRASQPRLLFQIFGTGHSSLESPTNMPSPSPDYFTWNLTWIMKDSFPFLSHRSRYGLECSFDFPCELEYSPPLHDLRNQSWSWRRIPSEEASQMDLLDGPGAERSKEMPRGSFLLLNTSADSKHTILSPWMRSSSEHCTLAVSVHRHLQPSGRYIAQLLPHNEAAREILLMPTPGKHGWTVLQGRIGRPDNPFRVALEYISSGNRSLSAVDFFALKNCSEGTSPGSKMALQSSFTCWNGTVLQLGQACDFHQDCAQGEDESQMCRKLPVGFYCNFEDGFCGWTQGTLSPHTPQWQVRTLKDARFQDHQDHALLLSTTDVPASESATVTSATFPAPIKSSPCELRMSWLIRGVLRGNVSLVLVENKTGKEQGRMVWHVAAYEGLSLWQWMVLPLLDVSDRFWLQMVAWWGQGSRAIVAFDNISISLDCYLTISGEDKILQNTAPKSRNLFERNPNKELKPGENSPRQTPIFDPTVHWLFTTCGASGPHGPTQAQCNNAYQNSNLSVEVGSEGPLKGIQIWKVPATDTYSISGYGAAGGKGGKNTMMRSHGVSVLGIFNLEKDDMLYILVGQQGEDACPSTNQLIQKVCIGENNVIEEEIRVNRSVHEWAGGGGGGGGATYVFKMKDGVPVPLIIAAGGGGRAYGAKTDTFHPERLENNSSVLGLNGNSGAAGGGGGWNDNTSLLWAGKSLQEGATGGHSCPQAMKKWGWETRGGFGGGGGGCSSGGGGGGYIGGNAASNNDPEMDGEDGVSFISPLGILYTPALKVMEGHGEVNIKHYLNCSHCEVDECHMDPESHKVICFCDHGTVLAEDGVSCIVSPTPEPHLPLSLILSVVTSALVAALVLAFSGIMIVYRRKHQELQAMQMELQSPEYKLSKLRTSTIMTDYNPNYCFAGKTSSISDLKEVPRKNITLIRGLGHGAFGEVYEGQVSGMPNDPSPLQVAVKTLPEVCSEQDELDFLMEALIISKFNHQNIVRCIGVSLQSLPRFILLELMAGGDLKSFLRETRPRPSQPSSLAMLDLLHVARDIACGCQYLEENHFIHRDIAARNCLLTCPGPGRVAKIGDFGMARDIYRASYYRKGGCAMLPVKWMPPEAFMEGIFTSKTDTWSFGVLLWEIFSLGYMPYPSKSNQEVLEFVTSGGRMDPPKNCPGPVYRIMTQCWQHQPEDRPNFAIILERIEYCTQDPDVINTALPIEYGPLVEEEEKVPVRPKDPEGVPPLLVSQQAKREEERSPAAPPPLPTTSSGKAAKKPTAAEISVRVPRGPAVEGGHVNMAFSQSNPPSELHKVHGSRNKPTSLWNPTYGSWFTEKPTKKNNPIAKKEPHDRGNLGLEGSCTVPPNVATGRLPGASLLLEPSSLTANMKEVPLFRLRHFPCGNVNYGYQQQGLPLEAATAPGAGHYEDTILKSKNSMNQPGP

IC50 [1, 3] [nM] | IC50 [2, 4] [nM] | IC50 ([1]; ALK Kinase Inhibition) [nM] | IC50 ([2]; JAK2 Kinase Inhibition) [nM] | SMILES
> 10000 | < 100 | – | – | CC(C)(C)NS(=O)(=O)c1cccc(-c2ccc3cnc(Nc4cncc(C(N)=O)c4)nn23)c1 [Example 665, 5-[7-(3-tert-Butylsulfamoyl-phenyl)-pyrrolo[2,1-f][1,2,4]triazin-2-ylamino]-nicotinamide]
100 to 1000 | < 100 | – | – | CC(C)(C)NS(=O)(=O)c1cccc(-c2ccc3cnc(Nc4ccc(CN5CCS(=O)(=O)CC5)cc4)nn23)c1 [Example 1057, N-tert-Butyl-3-{2-[4-(1,1-dioxo-1 $1(6)-thiomorpholin-4-ylmethyl)-phenylamino]-pyrrolo[2,1-f][1,2,4]triazin-7-yl}-benzenesulfonamide]
< 100 | < 100 | – | – | COc1cc(N2CCC(N3CCOCC3)CC2)ccc1Nc1ncc2ccc(-c3ccc(Cl)cc3OC)n2n1 [Example 486, [7-(4-Chloro-2-methoxy-phenyl)-pyrrolo[2,1-f][1,2,4]triazin-2-yl]-[2-methoxy-4-(4-morpholin-4-yl-piperidin-1-yl)-phenyl]-amine]
> 10000 | 1000 to 10000 | – | – | CS(=O)(=O)c1cccc(-c2ccc3cnc(N4CCC(Oc5cccc(N)c5)CC4)nn23)c1 [Example 563, 3-{1-[7-(3-Methanesulfonyl-phenyl)-pyrrolo[2,1-f][1,2,4]triazin-2-yl]-piperdin-4-yloxy}-phenylamine]
– | – | 100 to 1000 | < 100 | COc1ncccc1-c1ccc2cnc(Nc3ccc(N4CCOCC4)cc3)nn12 [Example 16, [7-(2-Methoxy-pyridin-3-yl)-pyrrolo[2,1-f][1,2,4]triazin-2-yl]-(4-morpholin-4-yl-phenyl)-amine]
– | – | 100 to 1000 | < 100 | COc1ccccc1-c1ccc2cnc(Nc3ccc(N4CCCC4)cc3)nn12 [Example 169, [7-(2-Methoxy-phenyl)-pyrrolo[2,1-f][1,2,4]triazin-2-yl]-(4-pyrrolidin-1-yl-phenyl)-amine]
– | – | > 10000 | < 100 | CS(=O)(=O)c1ccc(-c2ccc3cnc(Nc4ccc5[nH]c(CN6CCOCC6)nc5c4)nn23)cc1 [Example 1541, [7-(4-Methanesulfonyl-phenyl)-pyrrolo[2,1-f][1,2,4]triazin-2-yl]-(2-morpholin-4-ylmethyl-1H-benzimidazol-5-yl)-amine]
– | – | 1000 to 10000 | < 100 | COc1ccc(Cl)cc1-c1ccc2cnc(Nc3ccc(N4CCCC4)cc3)nn12 [Example 168, [7-(5-Chloro-2-methoxy-phenyl)-pyrrolo[2,1-f][1,2,4]triazin-2-yl]-(4-pyrrolidin-1-yl-phenyl)-amine]
< 100 | 100 to 1000 | – | – | COc1cc2c(cc1Nc1ncc3ccc(-c4cccc(S(=O)(=O)NC(C)(C)C)c4)n3n1)CCN(C[C@H](C)O)CC2 [Example 701]
100 to 1000 | < 100 | – | – | Cn1ncc2cc(Nc3ncc4ccc(-c5cccc(S(=O)(=O)NC(C)(C)C)c5)n4n3)ccc21 [Example 1316, N-tert-Butyl-3-[2-(1-methyl-1H-indazol-5-ylamino)-pyrrolo[2,1-f][1,2,4]triazin-7-yl]-benzenesulfonamide]
– | – | 100 to 1000 | < 100 | CN1CCN(C2CCCN(c3ccc(Nc4ncc5ccc(-c6ccc(S(C)(=O)=O)cc6)n5n4)cc3)C2)CC1 (centres unmarked) [Example 351, [7-(4-Methanesulfonyl-phenyl)-pyrrolo[2,1-f][1,2,4]triazin-2-yl]-{4-[3-(4-methyl-piperazin-1-yl)-piperidin-1-yl]-phenyl}-amine]
1000 to 10000 | < 100 | – | – | COc1ccccc1-c1ccc2cnc(Nc3ccc(-c4cccnc4)cc3)nn12 [Example 1091, [7-(2-Methoxy-phenyl)-pyrrolo[2,1-f][1,2,4]triazin-2-yl]-(4-pyridin-3-yl-phenyl)-amine]
< 100 | < 100 | – | – | COc1cc(Nc2ncc3ccc(-c4ccccc4N(C)S(C)(=O)=O)n3n2)ccc1C1CCN(C)CC1 [Example 913, N-(2-{2-[3-Methoxy-4-(1-methyl-piperidin-4-yl)-phenylamino]-pyrrolo[2,1-f][1,2,4]triazin-7-yl}-phenyl)-N-methyl-methanesulfonamide]
– | – | > 10000 | < 100 | O=S(=O)(c1ccc(-c2ccc3cnc(Nc4ccc(N5CCOCC5)cc4)nn23)cc1)N1CCCC1 [Example 63, (4-Morpholin-4-yl-phenyl)-{7-[4-(pyrrolidine-1-sulfonyl)-phenyl]-pyrrolo[2,1-f][1,2,4]triazin-2-yl}-amine]
< 100 | 100 to 1000 | – | – | COc1cc(C2CCCN(CC(N)=O)C2)ccc1Nc1ncc2ccc(-c3ccccc3N(C)S(C)(=O)=O)n2n1 (racemic) [Example 861, (±)-2-[3-(4-{7-[2-(Methanesulfonyl-methyl-amino)-phenyl]-pyrrolo[2,1-f][1,2,4]triazin-2-ylamino}-3-methoxy-phenyl)-piperidin-1-yl]-acetamide]
> 10000 | > 10000 | – | – | COc1cc(C2CCN(C[C@H](Oc3ncc4ccc(-c5ccccc5OC)n4n3)C(F)(F)F)CC2)ccc1N [Example 786, 2-Methoxy-4-(1-{(S)-3,3,3-trifluoro-2-[7-(2-methoxy-phenyl)-pyrrolo[2,1-f][1,2,4]triazin-2-yloxy]-propyl}-piperidin-4-yl)-phenylamine]
< 100 | 100 to 1000 | – | – | COc1cc(C2CCN(CCF)CC2)ccc1Nc1ncc2ccc(-c3ccccc3N(C)S(C)(=O)=O)n2n1 [Example 792, N-[2-(2-{4-[1-(2-Fluoro-ethyl)-piperidin-4-yl]-2-methoxy-phenylamino}-pyrrolo[2,1-f][1,2,4]triazin-7-yl)-phenyl]-N-methyl-methanesulfonamide]
< 100 | 100 to 1000 | – | – | COc1cc(C2=CCNCC2)ccc1Nc1ncc2ccc(-c3ccccc3N(C)S(C)(=O)=O)n2n1 [Example 742, N-(2-{2-[2-Methoxy-4-(1,2,3,6-tetrahydro-pyridin-4-yl)-phenylamino]-pyrrolo[2,1-f][1,2,4]triazin-7-yl}-phenyl)-N-methyl-methanesulfonamide]
100 to 1000 | 1000 to 10000 | – | – | COc1cc(N2CCN(C[C@H](C)O)CC2)ccc1Nc1ncc2ccc(-c3ccccc3S(C)(=O)=O)n2n1 [Example 541, (S)-1-(4-{4-[7-(2-Methanesulfonyl-phenyl)-pyrrolo[2,1-f][1,2,4]triazin-2-ylamino]-3-methoxy-phenyl}-piperazin-1-yl)-propan-2-ol]
– | – | < 100 | < 100 | COCc1ccccc1-c1ccc2cnc(Nc3ccc(N4CCN(C)CC4)cc3)nn12 [Example 1500, [7-(2-Methoxymethyl-phenyl)-pyrrolo[2,1-f][1,2,4]triazin-2-yl]-[4-(4-methyl-piperazin-1-yl)-phenyl]-amine]
< 100 | < 100 | – | – | CN1CCN(c2cccc(Nc3ncc4ccc(-c5cccc(S(=O)(=O)NC(C)(C)C)c5)n4n3)c2)CC1 [Example 883, N-tert-Butyl-3-{2-[3-(4-methyl-piperazin-1-yl)-phenylamino]-pyrrolo[2,1-f][1,2,4]triazin-7-yl}-benzenesulfonamide]
– | – | 100 to 1000 | < 100 | CC(=O)N1CCOc2ccc(Nc3ncc4ccc(-c5ccccc5N(C)S(C)(=O)=O)n4n3)cc21 [Example 1374, N-{2-[2-(4-Acetyl-3,4-dihydro-2H-1,4-benzoxazin-6-ylamino)-pyrrolo[2,1-f][1,2,4]triazin-7-yl]-phenyl}-N-methyl-methanesulfonamide]
– | – | < 100 | 1000 to 10000 | COc1c(Nc2ncc3ccc(-c4ccccc4N(C)S(C)(=O)=O)n3n2)ccc(N2CCN(C[C@H](C)O)CC2)c1F [Example 1478, N-[2-(2-{3-Fluoro-4-[4-((S)-2-hydroxy-propyl)-piperazin-1-yl]-2-methoxy-phenylamino}-pyrrolo[2,1-f][1,2,4]triazin-7-yl)-phenyl]-N-methyl-methanesulfonamide]
< 100 | < 100 | – | – | COc1cc(C2CCN(CC(N)=O)C2)ccc1Nc1ncc2ccc(-c3ccccc3OC)n2n1 (racemic) [Example 836, (±)-2-(3-{3-Methoxy-4-[7-(2-methoxy-phenyl)-pyrrolo[2,1-f][1,2,4]triazin-2-ylamino]-phenyl}-pyrrolidin-1-yl)-acetamide]
100 to 1000 | < 100 | – | – | CN1CCN(CCn2cc(Nc3ncc4ccc(-c5ccccc5N(C)S(C)(=O)=O)n4n3)cn2)CC1 [Example 1212, N-Methyl-N-[2-(2-{1-[2-(4-methyl-piperazin-1-yl)-ethyl]-1H-pyrazol-4-ylamino}-pyrrolo[2,1-f][1,2,4]triazin-7-yl)-phenyl]-methanesulfonamide]
– | – | 1000 to 10000 | < 100 | c1ccc(-c2ccc3cnc(Nc4ccc5nc[nH]c5c4)nn23)nc1 [Example 1562, (3H-Benzimidazol-5-yl)-(7-pyridin-2-yl-pyrrolo[2,1-f][1,2,4]triazin-2-yl)-amine]
> 10000 | < 100 | – | – | CN(Cc1cccc(-c2ccc3cnc(Nc4ccc5c(c4)NC(=O)C5(C)C)nn23)c1)S(C)(=O)=O [Example 1054, N-{3-[2-(3,3-Dimethyl-2-oxo-2,3-dihydro-1H-indol-6-ylamino)-pyrrolo[2,1-f][1,2,4]triazin-7-yl]-benzyl}-N-methyl-methanesulfonamide]
< 100 | < 100 | – | – | CCN1CCCC(CC)(c2ccc(Nc3ncc4ccc(-c5ccccc5N(C)S(C)(=O)=O)n4n3)cc2)C1 (racemic) [Example 778, (±)-N-(2-{2-[4-(1,3-Diethyl-piperidin-3-yl)-phenylamino]-pyrrolo[2,1-f][1,2,4]triazin-7-yl}-phenyl)-N-methyl-methanesulfonamide]
